Here are results for one molecule from patent US20200383969A1, “RIMEGEPANT FOR CGRP RELATED DISORDERS” (Biohaven Pharmaceutical Holding Company Ltd., priority 2018, published 2020).

This data set is described as follows: Study 303 (BHV3000-303), Phase 3, rimegepant 75 mg ODT vs placebo, acute treatment of migraine. Format: in vivo, human. An excerpt: Clinical Trial—BHV3000-303: Phase 3: Double-Blind, Randomized, Placebo-Controlled, Safety and Efficacy Trial of BHV-3000 (Rimegepant) Orally Discintegrating Tablet (ODT) for the Acute Treatment of Migraine (ClinicalTrials.gov Identifier: NCT03461757) • Study Type: Interventional (Clinical Trial) • Actual Enrollment: 1812 participants • Allocation: Randomized • Intervention Model: Parallel Assignment • Masking: Triple (Participant, Care Provider, Investigator) • Primary Purpose: Treatment • Official Title: BHV3000-303: Phase 3, Double-Blind, Randomized, Placebo Controlled, Safety and Efficacy Trial of BHV-3000 (Rimegepant) Orally Disintegrating Tablet (ODT) for the Acute Treatment of Migraine • Actual Study Start Date: Feb. 27, 2018 • Actual Primary Completion Date: Oct. 8, 2018 • Actual Study Completion Date: Oct. 15, 2018 • 1. Pain freedom of rimegepant compared with placebo in the acute treatment of migraine will be measured using the number of evaluable subjects that report no pain at 2 hours post-dose. • Pain will be measured on a 4 point Likert scale (0=none, 1=mild, 2=moderate, 3=severe) • 2. Freedom from the most bothersome symptom (MBS) of rimegepant compared with placebo will be measured using the number of evaluable subjects that report the absence of their MBS at 2 hours post-dose. [Time Frame: Two Hours Post Dose] • The MBS (nausea, phonophobia or photophobia) will measured using a binary scale (0=absent, 1=present). • 1. […] [Time Frame: 2 Hours Post-Dose] • Pain Relief as measured by a 4 point numeric rating scale (None, Mild, Moderate, Severe) • 2. […] [ Time Frame: 2 hours-24 hours post-dose] • Sustained Pain Relief as measured by a 4 point numeric rating scale (None, Mild, Moderate, Severe) • 4. […] To measure rimegepant compared to placebo on the probability of requiring rescue medication will be assessed using the number of subjects that take rescue medication within […] administration of study medication (BHV3000 or placebo). […] Sustained ability to function at a normal level as measured by the Functional disability scale [Time Frame: 2 to 24 hours post dose] • Subjects self-report “normal” on the functional disability scale • 7. […] [Time Frame: 2 hours-48 hours post-dose] • Sustained Pain Relief as measured by a 4 point numeric rating scale (None, Mild, Moderate, Severe) • 8. […] Sustained ability to function at a normal level as measured by the Functional disability scale [Time Frame: 2 to 48 hours post dose] • Subjects self-report “normal” on the functional disability scale • 10. […] [Time Frame: 90 minutes post dose] • Pain Relief as measured by a 4 point numeric rating scale (None, Mild, Moderate, Severe) • 13. […] [Time Frame: 2 hours -24 hours post-dose] • Sustained Pain Freedom as measured by a 4 point numeric rating scale (None, Mild, Moderate, Severe) • 14. […]

Molecules are shown by their SMILES. Where only a bound is given, the exact number is not on record here.

On to `N[C@@H]1c2cccnc2[C@H](OC(=O)N2CCC(n3c(=O)[nH]c4ncccc43)CC2)CC[C@H]1c1cccc(F)c1F` [Rimegepant, [(5S,6S,9R)-5-amino-6-(2,3-difluorophenyl)-6,7,8,9-tetrahydro-5H-cyclohepta[b]pyridin-9-yl] 4-(2-oxo-3H-imidazo[4,5-b]pyridin-1-yl)piperidine-1-carboxylate], for which the “LFTs>3×ULN, number of patients” value (Study 303) is given as “one”. In addition, the “Clinical benefit through 48 hours (pain relief, pain freedom, MBS, functional disability) vs placebo” value (Study 303, single dose) is on record as “Lasting clinical benefit”. Besides, the Safety and tolerability entry (Study 303 vs Studies 301 and 302) is recorded as “consistent with the profile previously observed”. The “Highest incidence of any single adverse event” value (rimegepant group, Study 303 paragraph, sentence follows mention of pooled Table 9) is not above 1.6%.
